Data: ChEMBL document CHEMBL5033996, “Design, Synthesis, and Bioactivity Evaluation of Dual-Target Inhibitors of Tubulin and Src Kinase Guided by Crystal Structure” (J Med Chem, 2021)
Activity calls are given as the source filed them. The calls are words filed in the database; no cut-off is given here.

How the values were obtained:
[1] = tested on: Ramos; test: Antiproliferative activity against human Ramos cells assessed as inhibition of cell proliferation measured after 72 hrs by MTT assay; type: functional, cell-based
[2] = tested on: SK-OV-3; test: Antiproliferative activity against human SK-OV-3 cells assessed as inhibition of cell proliferation measured after 72 hrs by MTT assay; type: functional, cell-based; details: SK-OV-3, 72 h
[3] = tested on: K562; test: Antiproliferative activity against human K562 cells assessed as inhibition of cell proliferation measured after 72 hrs by MTT assay; type: functional, cell-based; details: K562, 72 h
[4] = biological target: Tubulin; test: Binding affinity to tubulin (unknown origin) assessed as dissociation constant by tryptophan based binding assay; type: protein-complex assay, Homo sapiens
[5] = Cmax in Sprague-Dawley rat at 5 mg/kg, po measured up to 24 hrs by LC/MS/MS analysis; type: ADME, organism-based; parameters: route oral, dose 5 mg/kg, time <=24; details: in vivo
[6] = biological target: Focal adhesion kinase 1 (Homo sapiens) (UniProt Q05397); test: Inhibition of FAK phosphorylation at […] residue in human SK-OV-3 cells incubated for 24 hrs by Western blot analysis; type: cell-based
Focal adhesion kinase 1 (Homo sapiens), sequence (Q05397 2-1052 limits assumed): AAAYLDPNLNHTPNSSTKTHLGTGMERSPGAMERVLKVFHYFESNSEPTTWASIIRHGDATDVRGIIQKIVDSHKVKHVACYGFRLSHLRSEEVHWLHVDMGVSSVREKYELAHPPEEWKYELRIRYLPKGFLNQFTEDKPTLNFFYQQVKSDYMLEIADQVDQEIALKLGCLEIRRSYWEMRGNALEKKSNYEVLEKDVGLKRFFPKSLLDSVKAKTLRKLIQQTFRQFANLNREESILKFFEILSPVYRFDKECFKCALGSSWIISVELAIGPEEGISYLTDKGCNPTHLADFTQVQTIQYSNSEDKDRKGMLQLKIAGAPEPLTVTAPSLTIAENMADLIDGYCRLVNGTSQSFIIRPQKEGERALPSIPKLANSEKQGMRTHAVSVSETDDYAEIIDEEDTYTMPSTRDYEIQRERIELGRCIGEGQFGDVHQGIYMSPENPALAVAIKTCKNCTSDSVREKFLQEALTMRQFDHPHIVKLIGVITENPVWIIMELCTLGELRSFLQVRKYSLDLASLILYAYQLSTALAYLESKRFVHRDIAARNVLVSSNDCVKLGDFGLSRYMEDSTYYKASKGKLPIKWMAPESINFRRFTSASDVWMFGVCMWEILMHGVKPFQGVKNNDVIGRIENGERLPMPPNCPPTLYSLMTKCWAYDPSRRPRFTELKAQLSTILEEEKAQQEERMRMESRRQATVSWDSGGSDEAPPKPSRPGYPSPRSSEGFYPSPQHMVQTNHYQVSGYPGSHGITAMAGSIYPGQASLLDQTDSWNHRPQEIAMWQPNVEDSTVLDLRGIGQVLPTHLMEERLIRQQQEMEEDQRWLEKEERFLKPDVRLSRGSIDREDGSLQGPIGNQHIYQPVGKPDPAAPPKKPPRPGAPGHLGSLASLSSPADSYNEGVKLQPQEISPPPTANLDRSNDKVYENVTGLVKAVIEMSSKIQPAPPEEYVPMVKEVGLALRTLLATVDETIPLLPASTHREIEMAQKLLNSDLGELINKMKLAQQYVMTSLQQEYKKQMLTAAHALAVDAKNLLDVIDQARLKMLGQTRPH

[7] = tested on: SK-OV-3; test: Induction of cell cycle arrest in human SK-OV-3 cells assessed as accumulation of cells at G2/M phase at 10 nM incubated for 24 hrs by PI staining based flow cytometry analysis (reference value: 28.94%); type: functional
[8] = tested on: SK-OV-3; test: Induction of cell cycle arrest in human SK-OV-3 cells assessed as accumulation of cells at G2/M phase at 1 nM incubated for 24 hrs by PI staining based flow cytometry analysis (reference value: 28.94%); type: functional
[9] = tested on: SK-OV-3; test: Induction of cell cycle arrest in human SK-OV-3 cells assessed as accumulation of cells at S phase at 5 nM incubated for 24 hrs by PI staining based flow cytometry analysis (reference value: 21.4 %); type: functional
[10] = tested on: SK-OV-3; test: Induction of cell cycle arrest in human SK-OV-3 cells assessed as accumulation od cells at G2/M phase at 5 nM incubated for 24 hrs by PI staining based flow cytometry analysis (reference value: 28.94%); type: functional
[11] = Toxicity in mouse xenografted with human SK-OV-3 cells assessed as effect on body weight at 5 mg/kg, po administered for 30 days; type: organism-based; details: in vivo, 720 h, time 30 day
[12] = Half life in human liver microsomes; type: ADME, Microsome
[13] = tested on: SK-OV-3; test: Induction of cell cycle arrest in human SK-OV-3 cells assessed as accumulation of cells at S phase at 10 nM incubated for 24 hrs by PI staining based flow cytometry analysis (reference value: 21.4 %); type: functional
[14] = Tmax in Sprague-Dawley rat at 5 mg/kg, po measured up to 24 hrs by LC/MS/MS analysis; type: ADME, organism-based; details: in vivo
[15] = tested on: SK-OV-3; test: Induction of cell cycle arrest in human SK-OV-3 cells assessed as accumulation of cells at G0/G1 phase at 1 nM incubated for 24 hrs by PI staining based flow cytometry analysis (Rvb= 49.60%); type: functional
[16] = AUC (0 to t) in Sprague-Dawley rat at 5 mg/kg, po measured up to 24 hrs by LC/MS/MS analysis; type: ADME, organism-based; parameters: route oral, dose 5 mg/kg, time <=24; details: in vivo
[17] = Antitumor activity against human SK-OV-3 cells xenografted in nude mouse assessed as tumor growth inhibition at 5 mg/kg, po measured every 3 days for 1 month by vernier caliper analysis relative to control; type: functional; details: SK-OV-3, po, 730 h, time 1 months, read-out: TGI
[18] = Antitumor activity against mouse C26 cells xenografted in BALB/c mouse assessed as tumor growth inhibition at 10 mg/kg, po measured every 2 days for 10 days by vernier caliper analysis relative to control; type: functional; details: 240 h, time 10 day, read-out: TGI
[19] = Antitumor activity against human SK-OV-3 cells xenografted in nude mouse assessed as tumor growth inhibition at 10 mg/kg, po measured every 3 days for 1 month by vernier caliper analysis relative to control; type: functional; details: SK-OV-3, po, 730 h, time 1 months, read-out: TGI
[20] = Clearance in Sprague-Dawley rat at 5 mg/kg, po measured up to 24 hrs by LC/MS/MS analysis; type: ADME, organism-based; details: in vivo
[21] = Half life in Sprague-Dawley rat at 5 mg/kg, po measured up to 24 hrs by LC/MS/MS analysis; type: ADME, organism-based; details: in vivo
[22] = tested on: SK-OV-3; test: Induction of cell cycle arrest in human SK-OV-3 cells assessed as accumulation of cells at S phase at 1 nM incubated for 24 hrs by PI staining based flow cytometry analysis (reference value: 21.4 %); type: functional
[23] = tested on: SK-OV-3; test: Induction of cell cycle arrest in human SK-OV-3 cells assessed as accumulation of cells at G0/G1 phase at 5 nM incubated for 24 hrs by PI staining based flow cytometry analysis (reference value: 49.60 %); type: functional
[24] = tested on: SK-OV-3; test: Induction of mitotic block in human SK-OV-3 cells at 300 nM measured after 10 hrs by flow cytometry analysis; type: functional, cell-based
[25] = tested on: SK-OV-3; test: Induction of cell cycle arrest in human SK-OV-3 cells assessed as accumulation of cells at G0/G1 phase at 10 nM incubated for 24 hrs by PI staining based flow cytometry analysis (reference value: 49.60 %); type: functional
[26] = biological target: Proto-oncogene tyrosine-protein kinase Src (Homo sapiens) (UniProt P12931); test: Inhibition of Src kinase phosphorylation at Tyr416/419 residue in human SK-OV-3 cells incubated for 24 hrs by Western blot analysis; type: cell-based
Proto-oncogene tyrosine-protein kinase Src (Homo sapiens), sequence (P12931 2-536 limits assumed): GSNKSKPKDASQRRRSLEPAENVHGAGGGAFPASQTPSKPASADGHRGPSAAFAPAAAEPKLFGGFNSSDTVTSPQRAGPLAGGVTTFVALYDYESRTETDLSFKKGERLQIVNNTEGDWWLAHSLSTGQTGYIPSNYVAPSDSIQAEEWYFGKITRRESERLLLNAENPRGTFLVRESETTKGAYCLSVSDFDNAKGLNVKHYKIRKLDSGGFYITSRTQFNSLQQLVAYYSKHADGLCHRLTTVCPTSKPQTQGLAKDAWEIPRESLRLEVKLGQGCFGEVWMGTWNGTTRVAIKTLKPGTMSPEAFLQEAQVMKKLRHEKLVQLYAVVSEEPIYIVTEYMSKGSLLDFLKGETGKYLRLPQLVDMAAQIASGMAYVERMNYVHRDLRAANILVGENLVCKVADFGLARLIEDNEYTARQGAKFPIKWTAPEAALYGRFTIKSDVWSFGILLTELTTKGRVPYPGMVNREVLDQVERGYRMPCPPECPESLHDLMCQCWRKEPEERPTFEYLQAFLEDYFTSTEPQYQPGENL

[27] = Intrinsic clearance in human liver microsomes; type: ADME, Microsome
[28] = Oral bioavailability in Sprague-Dawley rat at 5 mg/kg measured up to 24 hrs by LC/MS/MS analysis; type: ADME, organism-based; details: in vivo
[29] = Toxicity in mouse xenografted with human SK-OV-3 cells assessed as effect on body weight at 10 mg/kg, po administered for 30 days; type: organism-based; details: in vivo, 720 h, time 30 day
[30] = Toxicity in C57 mouse at 40 mg/kg, po administered twice daily; type: organism-based; details: in vivo
[31] = tested on: SK-OV-3; test: Induction of mitotic block in human SK-OV-3 cells at 10 to 30 nM in presence of colchicine measured immediately by flow cytometry analysis; type: functional, cell-based; details: dose 10-30 nM
[32] = biological target: Tubulin (Homo sapiens) (UniProt P68371+Q9H4B7+P0DPH7+P68366+Q13509+Q71U36+P04350+Q3ZCM7+P07437+P68363+Q9BQE3+Q6PEY2+Q13885+Q9BVA1+Q9BUF5); test: Inhibition of tubulin polymerization in human SK-OV-3 cells at 5 uM incubated for 16 hrs by fluorescence microscopic analysis; type: cell-based
[33] = tested on: SK-OV-3; test: Induction of mitotic block in human SK-OV-3 cells at 10 to 30 nM in absence of colchicine measured immediately by flow cytometry analysis; type: functional, cell-based; details: dose 10-30 nM

`O=C(Cc1ccc(-c2ccc(OCCCN3C[C@@H]4C[C@H]3CO4)cc2)cn1)NCc1ccccc1` showed an IC50 [1] of over 100 nM, an IC50 [2] of 80.2 nM and an IC50 [3] of over 100 nM.
`O=C(Cc1ccc(-c2ccc(OCCCN3CCOCC3)cc2)cn1)NCc1ccccc1` showed an IC50 [1] of 129 nM, an IC50 [2] of 15.6 nM and an IC50 [3] of 50.9 nM.
With `O=C(Cc1ccc(-c2ccc(OCCN3CC4CCCCC4C3)cc2)cn1)NCc1ccccc1` (stereo unspecified) the IC50 [1] was 19.7 nM, the IC50 [2] was 74.9 nM and the IC50 [3] was 37.9 nM.
`O=C(Cc1ccc(-c2ccc(OCCCN3CC4CCC(C3)O4)cc2)cn1)NCc1ccccc1` gave an IC50 [1] of 8.6 nM, an IC50 [2] of 7.1 nM and an IC50 [3] of 14.6 nM.
Compound `CCN1CCN(CCOc2ccc(-c3ccc(CC(=O)NCc4ccccc4)nc3)cc2)CC1` has an IC50 [1] of 36.3 nM, an IC50 [2] of 14.5 nM and an IC50 [3] of 39.9 nM.
Compound `O=C(Cc1ccc(-c2ccc(OCCN3CC4CC4C3)cc2)cn1)NCc1ccccc1` (stereo unspecified) has an IC50 [1] of 19.6 nM, an IC50 [2] of 9.1 nM and an IC50 [3] of 29.2 nM.
With `O=C(Cc1ccc(-c2ccc(OCCNC3CC3)cc2)cn1)NCc1ccccc1` the IC50 [1] was 98.1 nM, the IC50 [2] was 5.2 nM and the IC50 [3] was 29.3 nM.
In the case of `O=C(Cc1ccc(-c2ccc(OCCN3C[C@@H]4C[C@H]3CO4)cc2)cn1)NCc1ccccc1`, the IC50 [1] is reported as 25.8 nM, the IC50 [2] is reported as 19.5 nM and the IC50 [3] is reported as 16.2 nM.
Compound `CC1CCCN(CCOc2ccc(-c3ccc(CC(=O)NCc4ccccc4)nc3)cc2)C1` (stereo unspecified) has an IC50 [1] of over 100 nM, an IC50 [2] of 57.7 nM and an IC50 [3] of over 100 nM.
In the case of `O=C(Cc1ccc(-c2ccc(OCCCCN3CC4CCC(C3)O4)cc2)cn1)NCc1ccccc1`, the IC50 [1] is reported as 17.3 nM, the IC50 [2] is reported as 21.8 nM and the IC50 [3] is reported as 40.5 nM.
Compound `O=C(Cc1ccc(-c2ccc(OCCN3CC4CCC(C3)O4)cc2)cn1)NCc1ccccc1` has an IC50 [1] of 3.1 nM, an IC50 [2] of 3.2 nM and an IC50 [3] of 6.2 nM.
In the case of `O=C(Cc1ccc(-c2ccc(OCCN3CCN(C(=O)CC4CC4)CC3)cc2)cn1)NCc1ccccc1`, the Kd [4] is reported as 610 nM, the Cmax [5] is reported as 398 ng/mL and the inhibition [6] is reported as “Dose-Dependent Effect”. The Activity [7] was 72.04%, the Activity [8] was 32.11% and the Activity [9] was 21.42%. For the same compound, the Activity [10] was 39.47%, the Activity [11] was “Non-Toxic” and the half-life [12] was 27.8 min. The IC50 [1] was 1.4 nM, the Activity [13] was 15.86% and the Tmax [14] was 19.8 min. The Activity [15] was 45.93%, the AUC(0-t) at 24 h [16] was 1050 ng·h/mL and the inhibition in vivo at 5 mg/kg [17] was 52%. The inhibition in vivo at 10 mg/kg [18] was 71%, the inhibition in vivo at 10 mg/kg [19] was 70% and the CL/F [20] was 80.2 mL/min/kg. The half-life [21] was 231 min, the Activity [22] was 21.96% and the Activity [23] was 39.12%. The Activity [24] was “Active”, the Activity [25] was 12.1% and the IC50 [2] was 0.61 nM. For the same compound, the IC50 [3] was 1 nM, the inhibition [26] was “Dose-Dependent Effect” and the CLH [27] was 49.8 mL·min/g. The bioavailability [28] was 24.3%, the Activity [29] was “Non-Toxic” and the Activity [30] was “Non-Toxic”. For the same compound, the Activity [31] was “Active” and the inhibition [32] was “Active”.
In the case of `COc1cc2c(c(OC)c1OC)-c1ccc(OC)c(=O)cc1[C@@H](NC(C)=O)CC2`, the Activity [33] is reported as “inactive”.
